Experimental data taken from US4873233A, “17-Substituted androsta-1,4-dien-3-one derivatives” (Farmitalia Carlo Erba S.p.a., priority 1987, dated 1989).

Target: T1, androgen receptor (Rattus norvegicus, UniProt P15207)
T1 sequence (P15207 1-902): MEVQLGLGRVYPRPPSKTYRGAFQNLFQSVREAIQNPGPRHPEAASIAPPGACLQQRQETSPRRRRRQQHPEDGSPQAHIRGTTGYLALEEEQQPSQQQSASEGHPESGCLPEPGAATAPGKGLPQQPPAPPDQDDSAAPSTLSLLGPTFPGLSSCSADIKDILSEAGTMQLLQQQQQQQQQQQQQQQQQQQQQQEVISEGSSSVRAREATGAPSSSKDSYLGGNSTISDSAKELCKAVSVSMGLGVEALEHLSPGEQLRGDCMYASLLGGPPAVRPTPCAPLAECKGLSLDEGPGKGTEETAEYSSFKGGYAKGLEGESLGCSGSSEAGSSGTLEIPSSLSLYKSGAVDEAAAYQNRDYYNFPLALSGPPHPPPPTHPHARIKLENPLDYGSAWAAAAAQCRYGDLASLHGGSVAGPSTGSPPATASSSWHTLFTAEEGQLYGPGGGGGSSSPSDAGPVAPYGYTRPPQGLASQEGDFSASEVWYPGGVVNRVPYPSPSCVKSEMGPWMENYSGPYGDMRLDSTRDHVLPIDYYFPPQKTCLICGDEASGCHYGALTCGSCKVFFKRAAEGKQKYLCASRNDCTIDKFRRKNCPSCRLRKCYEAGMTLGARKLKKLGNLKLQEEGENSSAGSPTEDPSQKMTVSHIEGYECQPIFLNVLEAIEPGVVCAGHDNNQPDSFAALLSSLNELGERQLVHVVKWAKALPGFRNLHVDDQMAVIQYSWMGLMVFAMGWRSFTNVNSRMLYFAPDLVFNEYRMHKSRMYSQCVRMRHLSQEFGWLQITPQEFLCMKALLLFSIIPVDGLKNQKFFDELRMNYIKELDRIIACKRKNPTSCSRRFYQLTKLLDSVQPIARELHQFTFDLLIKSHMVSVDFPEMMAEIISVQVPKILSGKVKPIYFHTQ
Assay: Binding affinity to cytoplasmic androgen (rat prostate) receptors, dextran-coated charcoal adsorption technique
Protocol: Binding affinity to cytoplasmic androgen (rat prostate) receptors was determined by standard dextran-coated charcoal adsorption technique (Raynaud J. P. et al. J. Steroid. Biochem. 6, 615-622, 1975).
Prostatic tissue, obtained from both adrenalectomized and orchidectomized Sprague-Dawley rats, was homogenized (1:10 weight:vol ratio) in 10 mM Tris-HCl PH 7.4, containing 1.5 nM EDTA and 1 mM dithiothreitol, in motor driven tissue grinders. The homogenate was centrifuged at 105,000×g for 1 h at 2° C. Aliquots of cytosol (0.2 ml) were incubated for 2 h at 0° C. with various concentrations of the test compounds, in duplicate, and a fixed amount of [^3 H]-5α-dihydrotestosterone (DHT, final concentration 1 nM in 0.4 ml of incubation volume). Then, free radioactivity was adsorbed on 0.2 ml of dextran-coated charcoal suspension and after centrifugation at 1,500×g for 10 min, the bound radioactivity in the supernatant was determined by liquid scintillation in RIaluma.

For `C=C1C[C@H]2[C@@H]3CC[C@H](O)[C@@]3(C)CC[C@@H]2[C@@]2(C)C=CC(=O)C=C12` [6-methylenandrosta-1,4-diene-17β-ol-3-one], the “affinity to the androgen receptor (in words)” value was “very high affinity” and the “times more potent than the correspondent 17-cheto-derivative (androgen receptor affinity)” value (versus 6-methylenandrosta-1,4-diene-3,17-dione) was 76 times.
